From patent US12539292B2, “BRM targeting compounds and associated methods of use” (Arvinas Operations, Inc., priority 2018, dated 2026)
Where two headings read alike, the source gives them in different places.

Molecular target: T1, BRM (Homo sapiens, UniProt P51531)
T1 construct: In-Cell Western Screen of BRM Degradation in SW1573 Cells; endogenous in cells; host or cells: SW1573
Experiment: In-cell Western screen of BRM degradation in SW1573 cells (Dmax and DC50)
Type: cell-based
Settings: BRM degradation, SW1573 cells
Method in brief: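 SW1573 cells were treated with compound overnight (18-20 h; final DMSO 0.1%), then fixed in 4% PFA, permeabilized with Triton X-100 and blocked. BRM was detected by in-cell Western using 800 nm anti-rabbit and 680 nm anti-mouse secondaries, and Dmax and DC50 were derived from the LI-COR Odyssey signal.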

[1] = Table 2D, read-out: **Dmax (%) (% degraded)

T1 sequence (P51531 whole entry): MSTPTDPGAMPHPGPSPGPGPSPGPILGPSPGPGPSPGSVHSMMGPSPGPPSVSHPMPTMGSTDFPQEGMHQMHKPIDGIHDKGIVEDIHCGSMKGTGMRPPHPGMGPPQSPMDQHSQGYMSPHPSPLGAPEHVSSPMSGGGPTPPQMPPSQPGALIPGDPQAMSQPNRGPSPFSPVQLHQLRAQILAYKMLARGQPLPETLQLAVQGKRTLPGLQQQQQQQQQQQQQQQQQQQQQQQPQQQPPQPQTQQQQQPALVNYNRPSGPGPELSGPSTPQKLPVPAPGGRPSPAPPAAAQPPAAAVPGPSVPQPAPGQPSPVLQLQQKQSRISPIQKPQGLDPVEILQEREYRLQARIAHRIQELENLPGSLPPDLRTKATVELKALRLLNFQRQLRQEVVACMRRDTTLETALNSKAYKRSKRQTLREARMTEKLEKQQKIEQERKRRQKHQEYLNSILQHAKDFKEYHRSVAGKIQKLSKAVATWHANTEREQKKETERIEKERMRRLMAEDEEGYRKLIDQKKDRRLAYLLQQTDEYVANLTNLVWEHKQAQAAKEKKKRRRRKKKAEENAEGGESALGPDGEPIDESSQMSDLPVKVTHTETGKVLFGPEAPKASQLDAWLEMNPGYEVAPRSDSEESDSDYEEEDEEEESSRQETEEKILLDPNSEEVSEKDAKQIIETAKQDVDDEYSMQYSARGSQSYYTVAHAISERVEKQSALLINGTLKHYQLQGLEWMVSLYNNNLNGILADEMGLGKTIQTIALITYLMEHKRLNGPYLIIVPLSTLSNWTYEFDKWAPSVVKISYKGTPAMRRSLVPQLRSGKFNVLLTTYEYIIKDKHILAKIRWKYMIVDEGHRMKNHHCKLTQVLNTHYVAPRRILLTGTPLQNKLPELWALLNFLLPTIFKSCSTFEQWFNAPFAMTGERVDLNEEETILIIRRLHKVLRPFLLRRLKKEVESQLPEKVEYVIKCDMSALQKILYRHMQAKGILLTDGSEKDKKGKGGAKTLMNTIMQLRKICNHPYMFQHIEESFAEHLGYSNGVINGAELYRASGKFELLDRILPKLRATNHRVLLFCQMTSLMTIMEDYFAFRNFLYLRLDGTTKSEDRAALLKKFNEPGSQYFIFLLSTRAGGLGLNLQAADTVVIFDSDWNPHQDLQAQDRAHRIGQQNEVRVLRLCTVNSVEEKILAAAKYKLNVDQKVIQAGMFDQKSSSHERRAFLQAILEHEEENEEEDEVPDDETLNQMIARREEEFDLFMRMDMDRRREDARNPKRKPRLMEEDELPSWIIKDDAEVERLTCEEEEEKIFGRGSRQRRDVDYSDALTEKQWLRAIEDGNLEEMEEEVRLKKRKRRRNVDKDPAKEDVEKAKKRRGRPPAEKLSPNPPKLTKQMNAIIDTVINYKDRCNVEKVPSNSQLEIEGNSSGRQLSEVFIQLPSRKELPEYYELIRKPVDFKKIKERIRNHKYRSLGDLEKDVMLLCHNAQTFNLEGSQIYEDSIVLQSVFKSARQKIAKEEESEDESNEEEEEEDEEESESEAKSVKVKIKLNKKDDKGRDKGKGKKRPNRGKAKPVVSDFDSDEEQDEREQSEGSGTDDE

Compound | Dmax [1] | DC50 (Table 2D, read-out: *DC50) | DC50 (read-out: DC50) | Dmax (read-out: Dmax (% degraded))
Cc1ncsc1-c1ccc([C@H](C)NC(=O)[C@@H]2C[C@@H](O)CN2C(=O)[C@@H](c2cc(N3CCC(OC4CCN([C@H]5C[C@H](CN6CCOC7(CCN(c8cc(-c9ccccc9O)nnc8N)CC7)C6)C5)CC4)CC3)no2)C(C)C)cc1 [compound 616, (2S,4R)-1-((R)-2-(3-(4-((1-((1r,3R)-3-((9-(3-amino-6-(2-hydroxyphenyl)pyridazin-4-yl)-1-oxa-4,9-diazaspiro[5.5]undecan-4-yl)methyl)cyclobutyl)piperidin-4-yl)oxy)piperidin-1-yl)isoxazol-5-yl)-3-methylbutanoyl)-4-hydroxy-N-((S)-1-(4-(4-methylthiazol-5-yl)phenyl)ethyl)pyrrolidine-2-carboxamide] | > 75% | < 2.5 nM |  | 
Cc1ncsc1-c1ccc([C@H](C)NC(=O)[C@@H]2C[C@@H](O)CN2C(=O)[C@H](c2cc(N3CCC(CN4CCC(O[C@H]5C[C@H](N6CCOC7(CCN(c8cc(-c9ccccc9O)nnc8N)CC7)C6)C5)CC4)CC3)no2)C(C)C)cc1 [compound 617, (2S,4R)-1-((S)-2-(3-(4-((4-((1r,3r)-3-(9-(3-amino-6-(2-hydroxyphenyl)pyridazin-4-yl)-1-oxa-4,9-diazaspiro[5.5]undecan-4-yl)cyclobutoxy)piperidin-1-yl)methyl)piperidin-1-yl)isoxazol-5-yl)-3-methylbutanoyl)-4-hydroxy-N-((S)-1-(4-(4-methylthiazol-5-yl)phenyl)ethyl)pyrrolidine-2-carboxamide] |  | > 30 nM |  | 
Cc1ncsc1-c1ccc([C@H](C)NC(=O)[C@@H]2C[C@@H](O)CN2C(=O)[C@@H](c2cc(N3CCC(CN4CCC(O[C@H]5C[C@H](N6CCOC7(CCN(c8cc(-c9ccccc9O)nnc8N)CC7)C6)C5)CC4)CC3)no2)C(C)C)cc1 [compound 618, (2S,4R)-1-((R)-2-(3-(4-((4-((1r,3r)-3-(9-(3-amino-6-(2-hydroxyphenyl)pyridazin-4-yl)-1-oxa-4,9-diazaspiro[5.5]undecan-4-yl)cyclobutoxy)piperidin-1-yl)methyl)piperidin-1-yl)isoxazol-5-yl)-3-methylbutanoyl)-4-hydroxy-N-((S)-1-(4-(4-methylthiazol-5-yl)phenyl)ethyl)pyrrolidine-2-carboxamide] | > 75% | < 2.5 nM |  | 
Cc1ncsc1-c1ccc([C@H](C)NC(=O)[C@@H]2C[C@@H](O)CN2C(=O)[C@H](c2cc(OCCC3CCN(C[C@H]4C[C@H](N5CCC(C(C)n6cc(-c7cc(-c8ccccc8O)nnc7N)cn6)CC5)C4)CC3)no2)C(C)C)cc1 (stereo partly drawn) [compound 619, (2S,4R)-1-((2S)-2-(3-(2-(1-(((1r,3S)-3-(4-(1-(4-(3-amino-6-(2-hydroxyphenyl)pyridazin-4-yl)-1H-pyrazol-1-yl)ethyl)piperidin-1-yl)cyclobutyl)methyl)piperidin-4-yl)ethoxy)isoxazol-5-yl)-3-methylbutanoyl)-4-hydroxy-N-((S)-1-(4-(4-methylthiazol-5-yl)phenyl)ethyl)pyrrolidine-2-carboxamide] |  | > 30 nM |  | 
CC(C)[C@H](C(=O)N1C[C@H](O)C[C@H]1C(=O)N[C@@H](C)c1ccc(-n2ccnc2N)cc1)c1cc(N2CCC(CN3CCC(O[C@H]4C[C@H](Oc5cc(N6C7CCC6CN(c6cc(-c8ccccc8O)nnc6N)C7)ccn5)C4)CC3)CC2)no1 [compound 620, (2S,4R)-N-((S)-1-(4-(2-amino-1H-imidazol-1-yl)phenyl)ethyl)-1-((2S)-2-(3-(4-((4-((1r,3r)-3-((4-(3-(3-amino-6-(2-hydroxyphenyl)pyridazin-4-yl)-3,8-diazabicyclo[3.2.1]octan-8-yl)pyridin-2-yl)oxy)cyclobutoxy)piperidin-1-yl)methyl)piperidin-1-yl)isoxazol-5-yl)-3-methylbutanoyl)-4-hydroxypyrrolidine-2-carboxamide] |  | > 30 nM |  | 
CC(C)[C@@H](C(=O)N1C[C@H](O)C[C@H]1C(=O)N[C@@H](C)c1ccc(-n2ccnc2N)cc1)c1cc(N2CCC(CN3CCC(O[C@H]4C[C@H](Oc5cc(N6C7CCC6CN(c6cc(-c8ccccc8O)nnc6N)C7)ccn5)C4)CC3)CC2)no1 [compound 621, (2S,4R)-N-((S)-1-(4-(2-amino-1H-imidazol-1-yl)phenyl)ethyl)-1-((2R)-2-(3-(4-((4-((1r,3r)-3-((4-(3-(3-amino-6-(2-hydroxyphenyl)pyridazin-4-yl)-3,8-diazabicyclo[3.2.1]octan-8-yl)pyridin-2-yl)oxy)cyclobutoxy)piperidin-1-yl)methyl)piperidin-1-yl)isoxazol-5-yl)-3-methylbutanoyl)-4-hydroxypyrrolidine-2-carboxamide] | > 75% | < 2.5 nM |  | 
CC(C)[C@@H](C(=O)N1C[C@H](O)C[C@H]1C(=O)N[C@@H](C)c1ccc(-c2ccnn2C)cc1)c1cc(N2CCC(CN3CCC(O[C@H]4C[C@H](Oc5cc(N6C7CCC6CN(c6cc(-c8ccccc8O)nnc6N)C7)ccn5)C4)CC3)CC2)no1 [compound 622, (2S,4R)-1-((2R)-2-(3-(4-((4-((1r,3r)-3-((4-(3-(3-amino-6-(2-hydroxyphenyl)pyridazin-4-yl)-3,8-diazabicyclo[3.2.1]octan-8-yl)pyridin-2-yl)oxy)cyclobutoxy)piperidin-1-yl)methyl)piperidin-1-yl)isoxazol-5-yl)-3-methylbutanoyl)-4-hydroxy-N-((S)-1-(4-(1-methyl-1H-pyrazol-5-yl)phenyl)ethyl)pyrrolidine-2-carboxamide] | > 75% | < 2.5 nM |  | 
Cc1ncsc1-c1ccc([C@H](C)NC(=O)[C@@H]2C[C@@H](O)CN2C(=O)[C@H](c2cc(N3CCC4(CC3)CN(C[C@H]3C[C@H](Oc5cc(N6C7CCC6CN(c6cc(-c8ccccc8O)nnc6N)C7)ccn5)C3)CCO4)no2)C(C)C)cc1 [compound 623, (2S,4R)-1-((2S)-2-(3-(4-(((1r,3S)-3-((4-(3-(3-amino-6-(2-hydroxyphenyl)pyridazin-4-yl)-3,8-diazabicyclo[3.2.1]octan-8-yl)pyridin-2-yl)oxy)cyclobutyl)methyl)-1-oxa-4,9-diazaspiro[5.5]undecan-9-yl)isoxazol-5-yl)-3-methylbutanoyl)-4-hydroxy-N-((S)-1-(4-(4-methylthiazol-5-yl)phenyl)ethyl)pyrrolidine-2-carboxamide] |  | > 30 nM |  | 
Cc1ncsc1-c1ccc([C@H](C)NC(=O)[C@@H]2C[C@@H](O)CN2C(=O)[C@@H](c2cc(N3CCC4(CC3)CN(C[C@H]3C[C@H](Oc5cc(N6C7CCC6CN(c6cc(-c8ccccc8O)nnc6N)C7)ccn5)C3)CCO4)no2)C(C)C)cc1 [compound 624, (2S,4R)-1-((2R)-2-(3-(4-(((1r,3R)-3-((4-(3-(3-amino-6-(2-hydroxyphenyl)pyridazin-4-yl)-3,8-diazabicyclo[3.2.1]octan-8-yl)pyridin-2-yl)oxy)cyclobutyl)methyl)-1-oxa-4,9-diazaspiro[5.5]undecan-9-yl)isoxazol-5-yl)-3-methylbutanoyl)-4-hydroxy-N-((S)-1-(4-(4-methylthiazol-5-yl)phenyl)ethyl)pyrrolidine-2-carboxamide] | > 75% | < 2.5 nM |  | 
Cc1ncsc1-c1ccc([C@H](C)NC(=O)[C@@H]2C[C@@H](O)CN2C(=O)[C@H](c2cc(N3CCC(CN4CCC(O[C@H]5C[C@H](Oc6cc(/C=C/c7cc(-c8ccccc8O)nnc7N)ccn6)C5)CC4)CC3)no2)C(C)C)cc1 [compound 625, (2S,4R)-1-((S)-2-(3-(4-((4-((1r,3r)-3-((4-((E)-2-(3-amino-6-(2-hydroxyphenyl)pyridazin-4-yl)vinyl)pyridin-2-yl)oxy)cyclobutoxy)piperidin-1-yl)methyl)piperidin-1-yl)isoxazol-5-yl)-3-methylbutanoyl)-4-hydroxy-N-((S)-1-(4-(4-methylthiazol-5-yl)phenyl)ethyl)pyrrolidine-2-carboxamide] |  | > 30 nM |  | 
Cc1ncsc1-c1ccc([C@H](C)NC(=O)[C@@H]2C[C@@H](O)CN2C(=O)[C@@H](c2cc(N3CCC(CN4CCC(O[C@H]5C[C@H](Oc6cc(/C=C/c7cc(-c8ccccc8O)nnc7N)ccn6)C5)CC4)CC3)no2)C(C)C)cc1 [compound 626, (2S,4R)-1-((R)-2-(3-(4-((4-((1r,3r)-3-((4-((E)-2-(3-amino-6-(2-hydroxyphenyl)pyridazin-4-yl)vinyl)pyridin-2-yl)oxy)cyclobutoxy)piperidin-1-yl)methyl)piperidin-1-yl)isoxazol-5-yl)-3-methylbutanoyl)-4-hydroxy-N-((S)-1-(4-(4-methylthiazol-5-yl)phenyl)ethyl)pyrrolidine-2-carboxamide] |  |  | < 2.5 nM | > 75%
Cc1ncsc1-c1ccc([C@H](C)NC(=O)[C@@H]2C[C@@H](O)CN2C(=O)[C@@H](c2cc(OCCN3CC[C@@H](O[C@H]4C[C@H](Oc5cc(N6C7CCC6CN(c6cc(-c8ccccc8O)nnc6N)C7)ccn5)C4)C[C@@H]3C)no2)C(C)C)cc1 [compound 627, (2S,4R)-1-((2R)-2-(3-(2-((2S,4R)-4-((1r,3R)-3-((4-(3-(3-amino-6-(2-hydroxyphenyl)pyridazin-4-yl)-3,8-diazabicyclo[3.2.1]octan-8-yl)pyridin-2-yl)oxy)cyclobutoxy)-2-methylpiperidin-1-yl)ethoxy)isoxazol-5-yl)-3-methylbutanoyl)-4-hydroxy-N-((S)-1-(4-(4-methylthiazol-5-yl)phenyl)ethyl)pyrrolidine-2-carboxamide] |  |  | < 2.5 nM | > 75%
Cc1ncsc1-c1ccc([C@H](C)NC(=O)[C@@H]2C[C@@H](O)CN2C(=O)[C@@H](c2cc(OCCN3CC[C@H](O[C@H]4C[C@H](Oc5cc(N6C7CCC6CN(c6cc(-c8ccccc8O)nnc6N)C7)ccn5)C4)C[C@H]3C)no2)C(C)C)cc1 [compound 628, (2S,4R)-1-((2R)-2-(3-(2-((2R,4S)-4-((1r,3S)-3-((4-(3-(3-amino-6-(2-hydroxyphenyl)pyridazin-4-yl)-3,8-diazabicyclo[3.2.1]octan-8-yl)pyridin-2-yl)oxy)cyclobutoxy)-2-methylpiperidin-1-yl)ethoxy)isoxazol-5-yl)-3-methylbutanoyl)-4-hydroxy-N-((S)-1-(4-(4-methylthiazol-5-yl)phenyl)ethyl)pyrrolidine-2-carboxamide] |  |  | < 2.5 nM | > 75%
